# In ChEMBL document CHEMBL5465560, “Selectivity Literature for EUbOPEN Chemogenomic Library” (2024):
# How the values were obtained:
# [1] = target: Calcium/calmodulin-dependent protein kinase type 1 (Homo sapiens) (UniProt Q14012); assay: Selectivity interaction (Adapta Assay) EUB0001632a CAMK1; conditions: at 10 µM
# [2] = target: T1, Dual specificity tyrosine-phosphorylation-regulated kinase 3 (Homo sapiens) (UniProt O43781); assay: Selectivity interaction (SelectScreen profiling (Invitrogen)) EUB0000607a DYRK3; conditions: at 2 µM
# T1 sequence (whole entry): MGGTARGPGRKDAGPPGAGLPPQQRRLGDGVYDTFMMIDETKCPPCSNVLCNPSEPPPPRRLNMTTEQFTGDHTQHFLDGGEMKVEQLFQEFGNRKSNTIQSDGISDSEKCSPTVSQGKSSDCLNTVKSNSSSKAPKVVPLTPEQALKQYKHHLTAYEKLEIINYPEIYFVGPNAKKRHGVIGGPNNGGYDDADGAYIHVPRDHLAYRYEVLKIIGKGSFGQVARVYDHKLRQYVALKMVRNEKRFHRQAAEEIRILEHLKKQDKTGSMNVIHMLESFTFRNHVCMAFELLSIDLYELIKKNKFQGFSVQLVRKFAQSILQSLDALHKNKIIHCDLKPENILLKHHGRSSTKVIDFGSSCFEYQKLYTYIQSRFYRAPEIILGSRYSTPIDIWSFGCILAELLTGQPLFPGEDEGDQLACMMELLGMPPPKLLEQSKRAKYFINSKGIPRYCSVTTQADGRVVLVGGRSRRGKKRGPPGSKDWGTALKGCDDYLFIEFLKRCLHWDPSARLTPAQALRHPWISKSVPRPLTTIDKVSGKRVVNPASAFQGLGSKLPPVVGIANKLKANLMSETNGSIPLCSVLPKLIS
# [3] = target: Serine/threonine-protein kinase 26 (Homo sapiens, UniProt Q9P289); assay: Selectivity interaction (KinomeScan (DiscoverX)) EUB0000607a STK26; conditions: at 10 µM
# Chain of Serine/threonine-protein kinase 26 (Q9P289 2-416 limits assumed): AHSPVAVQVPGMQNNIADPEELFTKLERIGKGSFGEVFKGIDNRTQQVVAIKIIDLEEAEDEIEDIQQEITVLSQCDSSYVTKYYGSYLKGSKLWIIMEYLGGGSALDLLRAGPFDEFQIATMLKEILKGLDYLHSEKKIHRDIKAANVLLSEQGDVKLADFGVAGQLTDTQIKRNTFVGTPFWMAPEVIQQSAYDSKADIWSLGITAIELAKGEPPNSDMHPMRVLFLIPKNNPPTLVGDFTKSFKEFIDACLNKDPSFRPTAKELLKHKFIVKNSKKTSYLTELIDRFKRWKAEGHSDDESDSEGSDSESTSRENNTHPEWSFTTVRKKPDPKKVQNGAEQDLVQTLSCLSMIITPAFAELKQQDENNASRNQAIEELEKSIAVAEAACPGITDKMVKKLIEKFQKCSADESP
# [4] = target: Tyrosine-protein kinase JAK1 (Homo sapiens, UniProt P23458); assay: Selectivity interaction (ActivX KiNativ screen (kinase selectivity in THP-1 cell lysates)) EUB0000639a JAK1; format: subcellular; conditions: lysate, at 0.04 µM
# [5] = target: Phosphatidylinositol 4-kinase beta (Homo sapiens, UniProt Q9UBF8); assay: Selectivity interaction (ActivX KiNativ screen (kinase selectivity in THP-1 cell lysates)) EUB0000639a PI4KB; format: subcellular; conditions: lysate, at 0.04 µM
# Chain of Phosphatidylinositol 4-kinase beta (Q9UBF8 2-816 limits assumed): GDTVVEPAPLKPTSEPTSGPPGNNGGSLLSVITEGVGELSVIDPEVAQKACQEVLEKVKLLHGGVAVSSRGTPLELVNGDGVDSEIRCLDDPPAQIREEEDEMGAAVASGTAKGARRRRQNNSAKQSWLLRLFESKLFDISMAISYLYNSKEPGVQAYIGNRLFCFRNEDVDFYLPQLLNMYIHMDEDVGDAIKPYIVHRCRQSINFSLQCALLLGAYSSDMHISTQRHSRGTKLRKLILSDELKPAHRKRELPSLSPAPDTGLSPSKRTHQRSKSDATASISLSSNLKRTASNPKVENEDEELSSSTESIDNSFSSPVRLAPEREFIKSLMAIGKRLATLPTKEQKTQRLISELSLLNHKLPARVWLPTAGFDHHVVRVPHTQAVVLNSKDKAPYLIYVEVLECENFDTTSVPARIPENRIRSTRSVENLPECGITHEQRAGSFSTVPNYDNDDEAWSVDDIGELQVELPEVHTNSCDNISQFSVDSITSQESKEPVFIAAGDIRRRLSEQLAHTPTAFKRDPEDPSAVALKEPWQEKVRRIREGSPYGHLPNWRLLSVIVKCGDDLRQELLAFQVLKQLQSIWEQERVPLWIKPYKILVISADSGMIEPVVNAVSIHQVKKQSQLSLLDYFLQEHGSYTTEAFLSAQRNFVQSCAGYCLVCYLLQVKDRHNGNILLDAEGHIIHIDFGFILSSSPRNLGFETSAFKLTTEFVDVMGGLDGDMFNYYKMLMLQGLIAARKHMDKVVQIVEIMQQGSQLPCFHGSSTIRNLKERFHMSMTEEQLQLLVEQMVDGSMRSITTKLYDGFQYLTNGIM
# [6] = target: T2, Serine/threonine-protein kinase PLK4 (Homo sapiens) (UniProt O00444); assay: Selectivity interaction (ProQinase) EUB0000171b PLK4
# T2 sequence (whole entry): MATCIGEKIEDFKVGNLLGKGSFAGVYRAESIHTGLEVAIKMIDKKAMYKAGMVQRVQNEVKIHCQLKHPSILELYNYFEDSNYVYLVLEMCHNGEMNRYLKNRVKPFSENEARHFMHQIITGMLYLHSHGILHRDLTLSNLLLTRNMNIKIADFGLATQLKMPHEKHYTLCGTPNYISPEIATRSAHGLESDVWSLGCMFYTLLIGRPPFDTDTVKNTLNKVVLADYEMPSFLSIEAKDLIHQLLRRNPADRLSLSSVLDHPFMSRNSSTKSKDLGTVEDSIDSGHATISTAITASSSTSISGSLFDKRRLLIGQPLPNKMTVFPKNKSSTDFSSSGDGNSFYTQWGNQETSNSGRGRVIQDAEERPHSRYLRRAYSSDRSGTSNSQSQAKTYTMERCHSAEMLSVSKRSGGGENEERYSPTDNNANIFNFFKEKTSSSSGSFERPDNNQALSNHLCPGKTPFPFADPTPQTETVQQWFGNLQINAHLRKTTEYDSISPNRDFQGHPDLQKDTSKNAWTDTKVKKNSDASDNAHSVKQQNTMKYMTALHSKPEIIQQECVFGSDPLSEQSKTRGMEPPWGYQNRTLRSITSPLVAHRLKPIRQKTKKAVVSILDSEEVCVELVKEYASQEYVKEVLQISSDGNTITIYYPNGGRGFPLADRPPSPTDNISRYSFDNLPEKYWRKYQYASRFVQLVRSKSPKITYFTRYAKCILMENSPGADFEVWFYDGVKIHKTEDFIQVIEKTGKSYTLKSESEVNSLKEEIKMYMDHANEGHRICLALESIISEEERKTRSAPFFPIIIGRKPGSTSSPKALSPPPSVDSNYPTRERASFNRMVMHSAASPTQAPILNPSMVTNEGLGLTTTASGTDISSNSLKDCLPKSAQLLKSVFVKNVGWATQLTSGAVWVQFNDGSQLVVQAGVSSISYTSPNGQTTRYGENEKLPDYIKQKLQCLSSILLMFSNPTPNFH
# [7] = target: Vascular endothelial growth factor receptor 1 (Homo sapiens) (UniProt P17948); assay: Selectivity interaction (KinomeScan (DiscoverX)) EUB0000695a FLT1; conditions: at 100 nM
# Chain of Vascular endothelial growth factor receptor 1 (Homo sapiens) (P17948 whole entry): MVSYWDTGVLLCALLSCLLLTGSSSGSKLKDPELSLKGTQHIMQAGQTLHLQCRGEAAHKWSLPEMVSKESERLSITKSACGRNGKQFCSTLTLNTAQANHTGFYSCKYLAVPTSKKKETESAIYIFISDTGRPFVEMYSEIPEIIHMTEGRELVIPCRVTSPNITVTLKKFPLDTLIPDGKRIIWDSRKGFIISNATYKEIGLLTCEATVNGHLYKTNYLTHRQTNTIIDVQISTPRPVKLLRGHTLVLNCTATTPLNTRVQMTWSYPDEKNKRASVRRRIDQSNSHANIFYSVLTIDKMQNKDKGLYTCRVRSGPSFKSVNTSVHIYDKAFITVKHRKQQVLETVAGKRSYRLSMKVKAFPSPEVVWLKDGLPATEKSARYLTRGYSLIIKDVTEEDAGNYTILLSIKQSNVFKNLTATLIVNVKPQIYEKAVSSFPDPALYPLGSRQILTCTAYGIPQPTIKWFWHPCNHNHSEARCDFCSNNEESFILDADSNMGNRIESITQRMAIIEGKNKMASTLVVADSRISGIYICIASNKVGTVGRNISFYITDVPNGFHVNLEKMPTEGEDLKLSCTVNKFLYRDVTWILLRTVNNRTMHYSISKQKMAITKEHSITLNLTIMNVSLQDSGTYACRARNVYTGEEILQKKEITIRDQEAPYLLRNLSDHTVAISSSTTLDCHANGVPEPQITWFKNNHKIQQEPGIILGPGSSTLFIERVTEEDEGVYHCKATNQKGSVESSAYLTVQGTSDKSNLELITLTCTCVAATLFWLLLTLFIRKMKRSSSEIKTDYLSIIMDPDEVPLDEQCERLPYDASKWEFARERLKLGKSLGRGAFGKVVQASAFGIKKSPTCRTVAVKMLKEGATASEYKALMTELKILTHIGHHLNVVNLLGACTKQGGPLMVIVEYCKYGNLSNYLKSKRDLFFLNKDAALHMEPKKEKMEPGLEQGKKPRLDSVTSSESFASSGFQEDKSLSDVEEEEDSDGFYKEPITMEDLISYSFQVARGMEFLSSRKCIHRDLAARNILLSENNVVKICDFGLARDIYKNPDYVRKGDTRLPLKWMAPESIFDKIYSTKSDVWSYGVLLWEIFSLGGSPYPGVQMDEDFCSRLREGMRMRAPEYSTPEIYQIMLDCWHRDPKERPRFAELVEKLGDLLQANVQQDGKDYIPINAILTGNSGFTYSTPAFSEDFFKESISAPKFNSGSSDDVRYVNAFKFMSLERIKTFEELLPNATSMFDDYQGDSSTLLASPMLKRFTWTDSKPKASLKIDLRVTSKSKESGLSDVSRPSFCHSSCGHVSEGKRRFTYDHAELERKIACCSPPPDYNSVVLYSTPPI
# [8] = target: T3, Phosphatidylinositol 5-phosphate 4-kinase type-2 gamma (Homo sapiens) (UniProt Q8TBX8); assay: Selectivity interaction (KinomeScan (DiscoverX)) EUB0001049a PIP4K2C; conditions: at 1 µM
# T3 sequence (whole entry): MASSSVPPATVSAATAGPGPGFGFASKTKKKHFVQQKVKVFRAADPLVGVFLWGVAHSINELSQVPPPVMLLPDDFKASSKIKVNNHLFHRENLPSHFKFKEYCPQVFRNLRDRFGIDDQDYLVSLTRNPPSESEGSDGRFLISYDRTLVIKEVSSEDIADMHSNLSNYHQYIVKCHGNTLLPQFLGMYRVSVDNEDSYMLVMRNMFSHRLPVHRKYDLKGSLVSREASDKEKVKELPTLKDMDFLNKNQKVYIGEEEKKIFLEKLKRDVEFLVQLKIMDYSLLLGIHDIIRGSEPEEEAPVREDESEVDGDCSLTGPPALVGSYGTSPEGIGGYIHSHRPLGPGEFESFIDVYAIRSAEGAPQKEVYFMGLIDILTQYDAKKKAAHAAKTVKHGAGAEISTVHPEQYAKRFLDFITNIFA
# [9] = target: Calcium/calmodulin-dependent protein kinase kinase 1 (Homo sapiens) (UniProt Q8N5S9); assay: Selectivity interaction (KinomeScan (DiscoverX)) EUB0001079a CAMKK1; conditions: at 1 µM
# Chain of Calcium/calmodulin-dependent protein kinase kinase 1 (Homo sapiens) (Q8N5S9 whole entry, looked up): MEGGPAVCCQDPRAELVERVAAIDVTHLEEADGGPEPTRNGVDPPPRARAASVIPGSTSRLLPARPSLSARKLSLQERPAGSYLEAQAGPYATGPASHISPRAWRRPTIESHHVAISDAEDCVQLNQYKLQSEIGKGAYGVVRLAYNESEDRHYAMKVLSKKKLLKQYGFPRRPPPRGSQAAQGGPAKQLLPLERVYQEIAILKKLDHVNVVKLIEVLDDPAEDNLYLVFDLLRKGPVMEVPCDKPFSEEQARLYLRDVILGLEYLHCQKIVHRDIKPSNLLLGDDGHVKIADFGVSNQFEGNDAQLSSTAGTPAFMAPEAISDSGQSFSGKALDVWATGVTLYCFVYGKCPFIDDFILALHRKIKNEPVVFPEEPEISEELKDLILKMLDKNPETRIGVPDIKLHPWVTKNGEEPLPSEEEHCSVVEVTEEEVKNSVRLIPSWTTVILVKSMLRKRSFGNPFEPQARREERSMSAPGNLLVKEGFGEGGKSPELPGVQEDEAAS
# [10] = target: 5-hydroxytryptamine receptor 5A (Homo sapiens) (UniProt P47898); assay: Selectivity interaction (GPCR panel (PDSP screen)) EUB0001079a HTR5A; conditions: at 10 µM
# Chain of 5-hydroxytryptamine receptor 5A (Homo sapiens) (P47898 whole entry, the tested form may be a part): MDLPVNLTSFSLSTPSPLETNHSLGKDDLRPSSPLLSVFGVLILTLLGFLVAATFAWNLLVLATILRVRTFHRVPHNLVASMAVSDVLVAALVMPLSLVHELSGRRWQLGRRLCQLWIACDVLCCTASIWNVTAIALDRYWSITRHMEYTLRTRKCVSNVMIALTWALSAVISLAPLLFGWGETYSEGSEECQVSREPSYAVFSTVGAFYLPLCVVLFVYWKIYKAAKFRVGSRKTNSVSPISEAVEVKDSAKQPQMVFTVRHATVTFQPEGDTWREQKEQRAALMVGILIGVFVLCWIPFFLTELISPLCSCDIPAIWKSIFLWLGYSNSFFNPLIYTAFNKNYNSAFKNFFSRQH
# [11] = target: LIM domain kinase 1 (Homo sapiens) (UniProt P53667); assay: Selectivity interaction (KinomeScan (DiscoverX)) EUB0000229b LIMK1; conditions: at 10 µM
# Chain of LIM domain kinase 1 (Homo sapiens) (P53667 whole entry, looked up, the tested form may be a part): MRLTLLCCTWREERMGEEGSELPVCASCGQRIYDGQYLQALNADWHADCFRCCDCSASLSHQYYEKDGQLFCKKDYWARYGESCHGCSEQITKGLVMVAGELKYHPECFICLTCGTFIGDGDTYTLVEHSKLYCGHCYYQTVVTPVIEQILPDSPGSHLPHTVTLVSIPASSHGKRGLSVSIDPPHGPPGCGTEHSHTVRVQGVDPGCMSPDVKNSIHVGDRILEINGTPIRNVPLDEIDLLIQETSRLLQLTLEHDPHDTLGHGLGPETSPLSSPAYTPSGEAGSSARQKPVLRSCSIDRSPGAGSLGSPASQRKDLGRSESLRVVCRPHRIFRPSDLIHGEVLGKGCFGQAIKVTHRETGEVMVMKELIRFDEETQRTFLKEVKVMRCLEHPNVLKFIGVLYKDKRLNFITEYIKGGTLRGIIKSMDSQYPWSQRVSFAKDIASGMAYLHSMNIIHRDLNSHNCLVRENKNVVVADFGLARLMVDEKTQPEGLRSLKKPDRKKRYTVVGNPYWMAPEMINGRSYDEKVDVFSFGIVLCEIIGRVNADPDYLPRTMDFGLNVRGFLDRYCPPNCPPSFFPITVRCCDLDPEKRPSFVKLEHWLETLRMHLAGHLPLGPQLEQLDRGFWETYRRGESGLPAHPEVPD
# [12] = target: Protein-tyrosine kinase 6 (Homo sapiens, UniProt Q13882); assay: Selectivity interaction (KinomeScan (DiscoverX)) EUB0000618a PTK6; conditions: at 10 µM
# Chain of Protein-tyrosine kinase 6 (Q13882 whole entry, looked up): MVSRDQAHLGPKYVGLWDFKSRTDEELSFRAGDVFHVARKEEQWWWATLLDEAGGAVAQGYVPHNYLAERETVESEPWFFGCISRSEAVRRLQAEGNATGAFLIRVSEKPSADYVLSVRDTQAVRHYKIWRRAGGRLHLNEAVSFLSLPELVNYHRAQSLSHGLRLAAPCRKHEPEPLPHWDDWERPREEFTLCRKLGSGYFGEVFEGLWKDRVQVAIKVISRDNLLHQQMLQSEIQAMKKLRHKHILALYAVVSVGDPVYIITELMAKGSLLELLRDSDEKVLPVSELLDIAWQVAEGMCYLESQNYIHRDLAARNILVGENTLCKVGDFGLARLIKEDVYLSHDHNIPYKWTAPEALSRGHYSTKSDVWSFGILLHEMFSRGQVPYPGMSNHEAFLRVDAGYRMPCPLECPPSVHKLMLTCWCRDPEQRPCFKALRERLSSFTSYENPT
# Chain of Calcium/calmodulin-dependent protein kinase type 1 (Homo sapiens) (Q14012 whole entry, looked up): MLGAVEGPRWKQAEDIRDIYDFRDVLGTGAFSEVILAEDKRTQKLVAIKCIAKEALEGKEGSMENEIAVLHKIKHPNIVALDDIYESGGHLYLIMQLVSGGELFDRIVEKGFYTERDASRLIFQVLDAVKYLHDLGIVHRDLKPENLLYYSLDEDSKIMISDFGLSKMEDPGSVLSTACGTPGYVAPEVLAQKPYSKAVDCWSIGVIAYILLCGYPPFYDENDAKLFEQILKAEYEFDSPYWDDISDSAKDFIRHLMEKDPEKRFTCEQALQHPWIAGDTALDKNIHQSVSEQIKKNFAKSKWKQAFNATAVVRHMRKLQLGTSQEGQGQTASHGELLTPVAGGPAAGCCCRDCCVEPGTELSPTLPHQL
compound,measurement,setting,value
Cn1cc(-n2cnc3c(NCc4nc5cc(Cl)c(Cl)cc5[nH]4)nc(N4CCOCC4)nc32)cn1,% of inhibition,[1],18.6%
CNC(=O)Nc1ccc(-c2nc(N3CC4CCC(C3)O4)c3cnn(C4CCC5(CC4)OCCO5)c3n2)cc1,% of inhibition,[2],-1%
same,% of control,[3],70%
CC[C@@H]1[C@H](F)C(=O)N[C@@H]1COc1nccc2cc(C(N)=O)c(OC)cc12 [ZIMLOVISERTIB],% of inhibition,[4],14.8%
same,% of inhibition,[5],-0.3%
C=CC(=O)Nc1cccc(C(=O)Nc2ccc(Nc3cc(-c4[nH]c(SC)nc4C)ccn3)cc2)c1,% of control,[6]; at 1 µM,77%
same,% of control,[6]; at 5 µM,57%
Cc1cc(F)c(C(=O)Nc2cccc(-c3nncn3C(C)C)n2)cc1-n1cnc(C2CC2)c1,% of control,[7],100%
COc1cc(Nc2nc(C)cc(-c3cnn4nc(OC)ccc34)n2)cc(C(F)(F)F)c1,% of control,[8],100%
Nc1cnc(N2CCc3cc(S(=O)(=O)Nc4c(F)cc(Cl)cc4F)cc(N4CCCC4=O)c32)nc1 [TP-020n],% of control,[9],100%
same,% of inhibition,[10],-4.87%
COc1cc(N(C)c2ccnc3ccc(C(F)(F)F)cc23)cc(OC)c1OC,% binding,[11],89%
O[C@H]1CC[C@H](Nc2ncc3nc(Nc4c(F)cc(F)cc4F)n([C@H]4CCOC4)c3n2)CC1,% of control,[12],100%
